{
  "source": "the NIST ThermoML archive (doi:10.1016/j.jct.2011.02.011)",
  "settings": "Crystal, Calculated from knudsen effusion weight loss",
  "note": "Where “and” joins values, the source holds several entries; their conditions need not be identical. Equal entries are not always repeated. Numbers after ± are expanded uncertainties.",
  "data": [
    {"smiles": "[O-][n+]1ccccc1-c1ccccn1", "note": "[2,2'-bipyridyl N-oxide]", "values": [
      {"measurement": "vapor or sublimation pressure", "setting": "319.17 K", "result": "5.02e-05 ± 2.5e-06 kPa and 4.83e-05 ± 2.4e-06 kPa and 4.82e-05 ± 2.4e-06 kPa"},
      {"measurement": "vapor or sublimation pressure", "setting": "321.15 K", "result": "6.32e-05 ± 3.2e-06 kPa and 6.13e-05 ± 3.1e-06 kPa"},
      {"measurement": "vapor or sublimation pressure", "setting": "323.16 K", "result": "7.8e-05 ± 3.9e-06 kPa and 8.26e-05 ± 4.1e-06 kPa and 7.96e-05 ± 4e-06 kPa"},
      {"measurement": "vapor or sublimation pressure", "setting": "325.15 K", "result": "0.0001 ± 5e-06 kPa and 9.94e-05 ± 5e-06 kPa and 0.000102 ± 5e-06 kPa"},
      {"measurement": "vapor or sublimation pressure", "setting": "327.14 K", "result": "0.000126 ± 6e-06 kPa and 0.000128 ± 6e-06 kPa and 0.000127 ± 6e-06 kPa"},
      {"measurement": "vapor or sublimation pressure", "setting": "329.16 K", "result": "0.000163 ± 8e-06 kPa and 0.000161 ± 8e-06 kPa and 0.000162 ± 8e-06 kPa"},
      {"measurement": "vapor or sublimation pressure", "setting": "331.13 K", "result": "0.000201 ± 1e-05 kPa and 0.000198 ± 1e-05 kPa and 0.0002 ± 1e-05 kPa"}
    ]}
  ]
}
